For data set [1] the following is noted: female genital tract compared to BP; cited from earlier work.
The conditions of data set [2]: administration of a moderate fat meal; cited from earlier work.
A short description of data set [3]: Raltegravir pharmacokinetics in blood plasma. The note with it: for AUC(0-t): AUC 0-12h; for AUC(0-t) / concentration at 12 h / Cmax: BP, median (IQR).
Data set [4] can be described thus: Raltegravir pharmacokinetics in cervicovaginal fluid. The note with it: CVF, median (IQR); for AUC(0-t): AUC 0-12h.
Setting [5] is: female, human, in vivo, 400 mg, first dose, HIV-infected postmenopausal women (n=5).
The mark [6] stands for this setting: female, human, in vivo, 400 mg, steady state, HIV-infected postmenopausal women (n=5).
Where [7] appears, read: female, human, in vivo, 400 mg, steady state, HIV-infected premenopausal women (n=6).
The mark [8] stands for this setting: female, human, in vivo, 400 mg, C12, first dose, HIV-infected postmenopausal women (n=5).
Where [9] appears, read: female, human, in vivo, 400 mg, C12, steady state, HIV-infected postmenopausal women (n=5).
The mark [10] stands for this setting: female, human, in vivo, 400 mg, C12, steady state, HIV-infected premenopausal women (n=6).
Setting [11] is: female, human, in vivo, 400 mg, Cmax, first dose, HIV-infected postmenopausal women (n=5).
Setting [12] is: female, human, in vivo, 400 mg, Cmax, steady state, HIV-infected premenopausal women (n=6).

Consider two compounds from publication PMC5242325 (Antiviral therapy, 2015).

As for `C[C@@H]1CCO[C@H]2Cn3cc(C(=O)NCc4ccc(F)cc4F)c(=O)c(O)c3C(=O)N12` [dolutegravir], in data set [1], the “CVF:BP AUC ratio” value is given as 0.07.
For `Cc1nnc(C(=O)NC(C)(C)c2nc(C(=O)NCc3ccc(F)cc3)c(O)c(=O)n2C)o1` [raltegravir], the “increase in AUC” value in data set [2] is given as 13%. The AUC(0-t) in data set [3] (setting [5]) came out at 4240 ng·h/mL; in data set [3] (female, human, in vivo, 400 mg, first dose, HIV-negative premenopausal women (n=7)) it was 3100 ng·h/mL; in data set [3] (setting [6]), 6180 ng·h/mL; in data set [3] (setting [7]) it was 5760 ng·h/mL; in data set [3] (female, human, in vivo, 400 mg, steady state, HIV-negative premenopausal women (n=7)) it was 8440 ng·h/mL; in data set [4] (setting [5]) it was 13800 ng·h/mL. Further, the AUC(0-t) in data set [4] (female, human, in vivo, 400 mg, first dose, HIV-negative premenopausal women (n=7), BLD imputed 0.1 ng/ml) was 1720 ng·h/mL; in data set [4] (setting [6]), 9570 ng·h/mL; in data set [4] (setting [7]), 11500 ng·h/mL; in data set [4] (female, human, in vivo, 400 mg, steady state, HIV-negative premenopausal women (n=7), BLD imputed 0.1 ng/ml) it was 3160 ng·h/mL. Also, the concentration at 12 h worked out at 222 ng/mL in data set [3] (setting [8]); 54 ng/mL in data set [3] (female, human, in vivo, 400 mg, C12, first dose, HIV-negative premenopausal women (n=7)); 310 ng/mL in data set [3] (setting [9]); 23 ng/mL in data set [3] (setting [10]); 303 ng/mL in data set [3] (female, human, in vivo, 400 mg, C12, steady state, HIV-negative premenopausal women (n=7)); 1290 ng/mL in data set [4] (setting [8]). Also, the results for the concentration at 12 h in data set [4] (setting [9]) and in data set [4] (setting [10]) were 958 ng/mL and 447 ng/mL, respectively. Also, the Cmax in data set [3] (setting [11]) was 1660 ng/mL; in data set [3] (female, human, in vivo, 400 mg, Cmax, first dose, HIV-negative premenopausal women (n=7)), 790 ng/mL; in data set [3] (female, human, in vivo, 400 mg, Cmax, steady state, HIV-infected postmenopausal women (n=5)), 1170 ng/mL; in data set [3] (setting [12]) it was 1980 ng/mL; in data set [3] (steady state, HIV-negative premenopausal women (n=7)) it was 1874 (587-2166) ng/mL; in data set [4] (setting [11]) it was 4780 ng/mL. Besides, the Cmax was 1920 ng/mL in data set [4] (setting [12]) and 2841 (326-4430) ng/mL in data set [4] (steady state, HIV-infected postmenopausal women (n=5)). Moreover, the “time after dosing by which all subjects had detectable concentrations in BP” value in data set [3] (first dose, HIV-negative premenopausal and HIV-infected postmenopausal women) was ≤ 1 h.

The term AUC(0-t) denotes the area under the concentration-time curve up to a stated or last time point. Low readings indicate less exposure, high ones more exposure.
